Experimental data from patent US20150038591A1, “Compounds, compositions and methods for the treatment of tauopathies” (PROTEOTECH INC., priority 2002, published 2015).

Assays:
aggregated Tau-441 = molecular target: T1, aggregated Tau-441 (Homo sapiens, UniProt P10636); assay: Thioflavin T fluorometry, dissolution/disruption/inhibition of preformed Tau aggregates; assay type: biochemical; conditions: 3 days at 37° C.
T1 construct: purchased rPeptide
Method: Thioflavin T binds specifically to aggregated Tau or Tau tangles, and this binding produces a fluorescence enhancement at 485 nm that is directly proportional to the amount of aggregated Tau. The higher the fluorescence, the greater the amount of aggregated Tau.
In this study, Tau-441 or TauRD was pre-fibrillized or aggregated by combining with Heparin (SIGMA) at 1:1 wt/wt, then incubation at 37° C. and shaking at 1400 rpm for 8 days. […] Following 3-days of co-incubation, 50 μl of each incubation mixture was transferred into a 96-well microtiter plate containing 150 μl of distilled water and 50 μl of a Thioflavin T solution (i.e. […] Thioflavin T in 250 mM phosphate buffer, pH 6.8). The fluorescence was read at 485 nm (444 nm excitation wavelength) using an ELISA plate fluorometer after subtraction with buffer alone or compound alone, as blank.

Tau aggregates = Tau aggregates (Homo sapiens, UniProt P10636); assay: Thioflavin S fluorometry, dissolution/disruption/inhibition of Tau aggregates; assay type: biochemical
Method: In contrast to quantitation of Aβ fibrils, where ThioT is used, it was shown for tau aggregates that ThioS is more reproducible and independent of solvent characteristics. […] (Friedhoff, P et al. (1998) Biochem 10223-10230)
The Thio S assay involves the dilution of 500 μM ThioS stock 1:1 with PBS. Pipette 25 μl of this into the wells of a 96-well assay plate. Add 50 μl samples and 50 μl PBS and mix well. Read plates immediately on a fluorometer with the excitation set at 444 nm and emission set at 485 nm. […] Log transformed values are analyzed using “Nonlinear regression (curve fit) log(inhibitor) vs. normalized response—Variable slope” analysis.

[1] = Tau:test compound wt/wt ratio 1:0.001
[2] = Tau:test compound wt/wt ratio 1:0.01
[3] = Tau:test compound wt/wt ratio 1:0.1
[4] = Tau:test compound wt/wt ratio 1:1

Tau aggregates, sequence (P10636 1-441 isoform P10636-8): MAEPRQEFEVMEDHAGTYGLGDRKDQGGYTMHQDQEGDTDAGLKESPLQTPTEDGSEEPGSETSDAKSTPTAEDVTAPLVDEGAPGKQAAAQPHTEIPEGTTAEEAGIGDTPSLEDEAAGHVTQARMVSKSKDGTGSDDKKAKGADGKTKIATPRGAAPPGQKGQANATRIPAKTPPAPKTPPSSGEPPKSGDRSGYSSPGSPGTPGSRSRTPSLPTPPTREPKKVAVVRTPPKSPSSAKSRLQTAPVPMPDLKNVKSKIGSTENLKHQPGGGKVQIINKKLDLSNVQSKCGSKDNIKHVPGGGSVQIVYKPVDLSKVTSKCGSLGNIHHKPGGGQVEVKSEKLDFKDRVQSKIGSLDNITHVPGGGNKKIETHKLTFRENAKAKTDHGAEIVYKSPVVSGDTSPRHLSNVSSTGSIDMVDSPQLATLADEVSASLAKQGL
T1 sequence (P10636 1-441 isoform P10636-8): as above

Structure (SMILES)	% dissolution/disruption/inhibition Tau (result ± S.D.) (aggregated Tau-441; [1]) [%]	% dissolution/disruption/inhibition Tau (result ± S.D.) (aggregated Tau-441; [2]) [%]	% dissolution/disruption/inhibition Tau (result ± S.D.) (aggregated Tau-441; [3]) [%]	% dissolution/disruption/inhibition Tau (result ± S.D.) (aggregated Tau-441; [4]) [%]	IC50 (Tau aggregates) [µM]
O=C(Nc1ccc(O)c(O)c1)C(=O)Nc1ccc(O)c(O)c1 [Compound 63, oxalic acid bis(3,4-dihydroxyanilide)]	11.8 ± 8.06	16.5 ± 2.49	34.7 ± 1.69	77.8 ± 1.13	
Oc1ccc(CCc2ccc(O)c(O)c2)cc1O [Compound 4, 1,2-bis(3,4-dihydroxyphenyl)ethane]	19.3 ± 0.00	68.0 ± 1.71	92.8 ± 2.59	93.5 ± 4.42	10.8
Oc1ccc(Cc2ccc(O)c(O)c2)cc1O [Compound 3, 3,4,3′,4′-Tetrahydroxydiphenylmethane]	17.0 ± 2.49	54.1 ± 2.62	89.2 ± 1.96	91.2 ± 2.59	32.4

The remaining lines, values ahead:

% dissolution/disruption/inhibition Tau (result ± S.D.) (aggregated Tau-441; [1]) [%]	% dissolution/disruption/inhibition Tau (result ± S.D.) (aggregated Tau-441; [2]) [%]	% dissolution/disruption/inhibition Tau (result ± S.D.) (aggregated Tau-441; [3]) [%]	% dissolution/disruption/inhibition Tau (result ± S.D.) (aggregated Tau-441; [4]) [%]	IC50 (Tau aggregates) [µM]	Structure (SMILES)
17.4 ± 4.88	54.1 ± 2.62	91.2 ± 0.56	94.1 ± 2.99	3.95	O=C(Nc1ccc(O)c(O)c1)Nc1ccc(O)c(O)c1 [Compound 76, 1,3-Bis(3,4-dihydroxyphenyl)urea]
				5.26	O=C(NCCc1ccc(O)c(O)c1)Nc1ccc(O)c(O)c1 [Compound 78, 1-(3,4-Dihydroxyphenyl)-3-(3,4-dihydroxyphenethyl)urea]
